Measured values taken from patent US9096646B2, “CXCR4 receptor compounds” (priority 2008, dated 2015).
Like-named read-outs stand apart in the source and are kept apart here. Peptide text beside a SMILES is read from it. * marks the point of attachment. Palmitoyl = CCCCCCCCCCCCCCCC(=O)*

Biological target: CXCR4 (Homo sapiens, UniProt P61073)
Test: Chemotaxis assay, effect on SDF1-a (CXCL12) induced migration of CCRF-CEM cells
Assay type: cell-based
Set-up: a human T-cell ALL line that endogenously expresses CXCR4; endogenous in cells; host or cells: CCRF-CEM (human T-cell ALL line)
Settings: Table 20, i3 loop, CEM cells, conc 1.0 uM; for activity at 1 µM: CCRF-CEM; for Peak Ratio: peak test compound/peak control
Source text: Chemotaxis assays were utilized to determine the effect of compound on the directed migration of cells in response to chemokine. Cells that express a receptor of interest were placed in the upper chamber of a Transwell chemotaxis plate (Corning) and allowed to migrate through a polycarbonate membrane to a lower chamber containing the appropriate receptor-specific ligand. To test for antagonist or potentiating activity, cells were mixed with the desired concentration of compound prior to addition to the upper chamber. Conversely, agonist activity was determined by adding compound in the bottom chamber only without endogenous chemokine. The effect of compound is quantified by several parameters, including the extent of maximum response, the shift of agonist dose-response curves, and the area under the curve.
To measure the CXCR4-dependent migration of cells, the appropriate concentration of CXCL12 (SDF1a) or test compound was diluted in phenol red-free RMPI-1640/20 mM HEPES/0.5% BSA buffer and placed in the bottom chamber of a transwell apparatus. CCRF-CEM cells, a human T-cell ALL line that endogenously expresses CXCR4, were washed twice in buffer and resuspended at 133,000 cells/ml. A 75 μl sample of this suspension is mixed with the test compound of interest and placed in the upper chamber of a 5-micron transwell apparatus.
To initiate cell migration, the assembled transwell plate was placed in a 37° C., 0.5% CO2 incubator for a specified time interval, typically between 30 and 120 minutes. After incubation, the unit was disassembled and the lower chamber placed at −80° C. overnight to facilitate lysis of cells. To quantify migrated cells, plates were thawed at 37° C. in a humidified chamber, and then a sample volume was removed from each well and mixed with an equal volume of CyQuant (Invitrogen) working solution in opaque plates. The fluorescence intensity of each well represents the DNA content and is directly proportional to cell number. […] The plate background control, which included no cells in the upper chamber, was subtracted from all values.

Sequence of CXCR4 (P61073 whole entry): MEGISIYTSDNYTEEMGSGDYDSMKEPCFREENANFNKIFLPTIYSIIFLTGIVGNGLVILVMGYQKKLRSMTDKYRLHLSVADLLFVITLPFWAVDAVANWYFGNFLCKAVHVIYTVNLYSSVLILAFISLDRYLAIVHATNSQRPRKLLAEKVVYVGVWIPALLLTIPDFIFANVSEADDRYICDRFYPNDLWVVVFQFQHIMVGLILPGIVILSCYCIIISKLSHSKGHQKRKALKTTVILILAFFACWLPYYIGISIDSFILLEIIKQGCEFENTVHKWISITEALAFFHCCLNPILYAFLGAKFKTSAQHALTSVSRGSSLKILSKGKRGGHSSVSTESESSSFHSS

Compound: CCCCCCCCCCCCCCCC(=O)N[C@@H](CCCCN)C(=O)N[C@@H](CC(C)C)C(=O)N[C@@H](CO)C(=O)N[C@@H](Cc1cnc[nH]1)C(=O)N[C@@H](CO)C(=O)N[C@@H](CCCCN)C(=O)NCC(=O)N[C@@H](Cc1cnc[nH]1)C(=O)N[C@@H](CCC(N)=O)C(=O)N[C@@H](CCCCN)C(=O)N[C@@H](CCCNC(=N)N)C(=O)N[C@@H](CCCCN)C(=O)N[C@@H](C)C(N)=O [Compound 94] (Palmitoyl-KLSHSKGHQKRKA-NH2)
- activity at 1 µM (read-out: AUC (% of vehicle)): 65.3%
- activity at 1 µM (read-out: Max (% of vehicle)): 80.5%
- Peak Test Compound: 1 nM
- Peak Ratio: 1

Compound: CCCCCCCCCCCCCCCC(=O)N[C@@H](CC(C)C)C(=O)N[C@@H](CO)C(=O)N[C@@H](Cc1cnc[nH]1)C(=O)N[C@@H](CO)C(=O)N[C@@H](CCCCN)C(=O)NCC(=O)N[C@@H](Cc1cnc[nH]1)C(=O)N[C@@H](CCC(N)=O)C(=O)N[C@@H](CCCCN)C(=O)N[C@@H](CCCNC(=N)N)C(=O)N[C@@H](CCCCN)C(=O)N[C@@H](C)C(=O)N[C@@H](CC(C)C)C(=O)N[C@@H](CCCCN)C(N)=O [Compound 95] (Palmitoyl-LSHSKGHQKRKALK-NH2)
- activity at 1 µM (read-out: AUC (% of vehicle)): 77.5%
- activity at 1 µM (read-out: Max (% of vehicle)): 92.1%
- Peak Test Compound: 1 nM
- Peak Ratio: 1

Compound: CCCCCCCCCCCCCCCC(=O)N[C@@H](Cc1cnc[nH]1)C(=O)N[C@@H](CO)C(=O)N[C@@H](CCCCN)C(=O)NCC(=O)N[C@@H](Cc1cnc[nH]1)C(=O)N[C@@H](CCC(N)=O)C(=O)N[C@@H](CCCCN)C(=O)N[C@@H](CCCNC(=N)N)C(=O)N[C@@H](CCCCN)C(=O)N[C@@H](C)C(=O)N[C@@H](CC(C)C)C(=O)N[C@@H](CCCCN)C(=O)N[C@H](C(N)=O)[C@@H](C)O [Compound 97] (Palmitoyl-HSKGHQKRKALKT-NH2)
- activity at 1 µM (read-out: AUC (% of vehicle)): 48.9%
- activity at 1 µM (read-out: Max (% of vehicle)): 54.7%
- Peak Test Compound: 1 nM
- Peak Ratio: 0.2

Compound: CCCCCCCCCCCCCCCC(=O)N[C@@H](Cc1cnc[nH]1)C(=O)N[C@@H](CO)C(=O)N[C@@H](CCCCN)C(=O)NCC(=O)N[C@@H](Cc1cnc[nH]1)C(=O)N[C@@H](CCC(N)=O)C(=O)N[C@@H](CCCCN)C(=O)N[C@@H](CCCNC(=N)N)C(=O)N[C@@H](CCCCN)C(=O)N[C@@H](C)C(=O)N[C@@H](CC(C)C)C(=O)N[C@@H](CCCCN)C(=O)N[C@H](C(=O)N[C@H](C(=O)N[C@H](C(N)=O)C(C)C)[C@@H](C)O)[C@@H](C)O [Compound 99] (Palmitoyl-HSKGHQKRKALKTTV-NH2)
- activity at 1 µM (read-out: AUC (% of vehicle)): 45%
- activity at 1 µM (read-out: Max (% of vehicle)): 64.5%
- Peak Test Compound: 0.2 nM
- Peak Ratio: 0.2

Compound: CCCCCCCCCCCCCCCC(=O)N[C@@H](Cc1cnc[nH]1)C(=O)N[C@@H](CO)C(=O)N[C@@H](CCCCN)C(=O)NCC(=O)N[C@@H](Cc1cnc[nH]1)C(=O)N[C@@H](CCC(N)=O)C(=O)N[C@@H](CCCCN)C(=O)N[C@@H](CCCNC(=N)N)C(=O)N[C@@H](CCCCN)C(=O)N[C@@H](C)C(=O)N[C@@H](CC(C)C)C(=O)N[C@@H](CCCCN)C(=O)N[C@H](C(=O)N[C@H](C(=O)N[C@H](C(=O)N[C@H](C(N)=O)[C@@H](C)CC)C(C)C)[C@@H](C)O)[C@@H](C)O [Compound 100] (Palmitoyl-HSKGHQKRKALKTTVI-NH2)
- activity at 1 µM (read-out: AUC (% of vehicle)): 49.3%
- activity at 1 µM (read-out: Max (% of vehicle)): 49.8%
- Peak Test Compound: 0.2 nM
- Peak Ratio: 0.04
